Values after ≈ are worked out from the molar mass of the structure shown.
Tests used:
[1] = Clearance in Sprague-Dawley rat at 1 mg/kg, iv; assay type: ADME, organism-based; design: dose 1 mg/kg, route intravenous; settings: in vivo
[2] = Aqueous solubility in PBS at pH 7; assay type: physicochemical
[3] = Aqueous solubility in fasted-state stimulated intestinal fluid at pH 6.8; assay type: physicochemical; settings: fasted-state simulated intestinal fluid
[4] = AUC (0 to infinity) in Sprague-Dawley rat at 1 mg/kg, iv; assay type: ADME, organism-based; design: time infinity, dose 1 mg/kg, route intravenous; settings: plasma
[5] = Oral bioavailability in Sprague-Dawley rat at 5 mg/kg; assay type: ADME, organism-based; settings: in vivo
[6] = AUC (0 to infinity) in Sprague-Dawley rat at 5 mg/kg, po; assay type: ADME, organism-based; design: time infinity, dose 5 mg/kg, route oral; settings: plasma
[7] = Cmax in Sprague-Dawley rat at 5 mg/kg, po; assay type: ADME, organism-based; design: dose 5 mg/kg, route oral; settings: in vivo
[8] = Aqueous solubility in 0.01N HCl; assay type: physicochemical
[9] = Half life in Sprague-Dawley rat at 1 mg/kg, iv; assay type: ADME, organism-based; design: dose 1 mg/kg, route intravenous; settings: in vivo
[10] = target: T1, Transient receptor potential cation channel subfamily V member 1 (Rattus norvegicus, UniProt O35433); assay: Antagonist activity at rat TRPV1 expressed in CHO cells assessed inhibition of capsaicin induced calcium influx; assay type: functional, cell-based
[11] = Volume of distribution at steady state in Sprague-Dawley rat at 1 mg/kg, iv; assay type: ADME, organism-based; design: dose 1 mg/kg, route intravenous; settings: in vivo, read-out: Vdss
[12] = target: T1, Transient receptor potential cation channel subfamily V member 1; assay: Antagonist activity at rat TRPV1 expressed in CHO cells assessed inhibition of acid induced calcium influx; assay type: functional, cell-based

T1 sequence (O35433 whole entry): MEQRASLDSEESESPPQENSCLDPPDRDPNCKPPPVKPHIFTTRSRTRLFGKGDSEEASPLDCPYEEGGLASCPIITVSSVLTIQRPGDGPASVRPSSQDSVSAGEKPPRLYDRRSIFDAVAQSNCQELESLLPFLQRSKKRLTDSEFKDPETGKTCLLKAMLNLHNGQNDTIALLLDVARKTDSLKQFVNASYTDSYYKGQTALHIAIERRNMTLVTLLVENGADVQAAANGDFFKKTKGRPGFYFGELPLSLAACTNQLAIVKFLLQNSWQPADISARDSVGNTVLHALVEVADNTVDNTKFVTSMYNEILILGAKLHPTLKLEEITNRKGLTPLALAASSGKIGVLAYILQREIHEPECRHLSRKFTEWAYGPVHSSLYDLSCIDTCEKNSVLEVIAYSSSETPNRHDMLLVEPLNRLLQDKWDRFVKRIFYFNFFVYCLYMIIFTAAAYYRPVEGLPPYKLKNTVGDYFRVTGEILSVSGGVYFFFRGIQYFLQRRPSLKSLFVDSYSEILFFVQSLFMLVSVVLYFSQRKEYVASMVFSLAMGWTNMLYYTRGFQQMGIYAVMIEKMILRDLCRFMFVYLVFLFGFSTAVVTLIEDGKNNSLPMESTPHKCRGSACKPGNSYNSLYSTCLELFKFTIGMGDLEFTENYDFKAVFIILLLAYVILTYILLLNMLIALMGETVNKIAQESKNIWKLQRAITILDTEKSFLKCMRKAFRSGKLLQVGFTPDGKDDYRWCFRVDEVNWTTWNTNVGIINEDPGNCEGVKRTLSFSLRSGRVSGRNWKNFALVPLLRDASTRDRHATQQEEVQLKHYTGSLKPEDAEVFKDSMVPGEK

| Compound | clearance [1] [mL/min/kg] | solubility [2] [µg/mL] | solubility [3] [µg/mL] | AUC(0-inf) [4] [ng·h/mL] | bioavailability [5] [%] | AUC(0-inf) [6] [ng·h/mL] | Cmax [7] [ng/mL] | solubility [8] [µg/mL] | half-life [9] [h] | IC50 [10] [nM] | Vd [11] [L/kg] | IC50 [12] [nM] |
| --- | --- | --- | --- | --- | --- | --- | --- | --- | --- | --- | --- | --- |
| CC(=O)Nc1nc2c(Oc3cc(-c4ccc(C(F)(F)F)cc4)nc(NC(C)c4ccccn4)n3)cccc2s1 (configuration not stated) | 22.5 | 6.7 (≈ 12.2 µM) | 150 (≈ 272 µM) | 743 | 24 | 899 | 280 | ≥ 200 | 5.5 | 1.5 | 6.44 | 1.6 |
| CC(=O)Nc1nc2c(Oc3cc(-c4ccc(C(F)(F)F)cc4)nc(N4CCCCC4)n3)cccc2s1 | – | ≤ 1 | 2.8 (≈ 5.45 µM) | – | – | – | – | ≤ 1 | – | 5.1 | – | 1.5 |
| CC(=O)Nc1nc2c(Oc3cc(-c4ccc(C(F)(F)F)cc4)nc(N4CCC(C(=O)O)CC4)n3)cccc2s1 | – | 6 (≈ 10.8 µM) | 3.4 (≈ 6.1 µM) | – | – | – | – | ≤ 1 | – | 410 | – | 27 |
| CC(=O)Nc1nc2c(Oc3cc(-c4ccc(C(F)(F)F)cc4)ncn3)cccc2s1 [AMG-517] | – | < 1 | – | – | – | – | – | < 1 | – | – | – | – |
| CC(=O)Nc1nc2c(Oc3cc(-c4ccc(C(F)(F)F)cc4)nc(N)n3)cccc2s1 | – | 8.8 (≈ 19.8 µM) | 3.5 (≈ 7.86 µM) | – | – | – | – | 4.7 (≈ 10.6 µM) | – | 12 | – | 4.8 |
| CC(=O)Nc1nc2c(Oc3cc(-c4ccc(C(F)(F)F)cc4)nc(N4CCC(O)CC4)n3)cccc2s1 | – | 2 (≈ 3.78 µM) | 12 (≈ 22.7 µM) | – | – | – | – | 21 (≈ 39.7 µM) | – | 35 | – | 90 |
| CC(=O)Nc1nc2c(Oc3cc(-c4ccc(C(F)(F)F)cc4)nc(N4CCOCC4)n3)cccc2s1 | – | ≤ 1 | 1.4 (≈ 2.72 µM) | – | – | – | – | ≤ 1 | – | 28 | – | 1.1 |
| CC(=O)Nc1nc2c(Oc3cc(-c4ccc(C(F)(F)F)cc4)nc(NCC4CCN(CC(C)C)CC4)n3)cccc2s1 | – | 9.4 (≈ 15.7 µM) | ≥ 200 | – | – | – | – | ≥ 200 | – | 51 | – | 64 |
| CC(=O)Nc1nc2c(Oc3cc(-c4ccc(C(F)(F)F)cc4)nc(C4=CCN(CC(C)C)CC4)n3)cccc2s1 | 67.3 | – | – | 258 | – | – | – | – | 2 | – | 6.38 | – |
| CC(=O)Nc1nc2c(Oc3cc(-c4ccc(C(F)(F)F)cc4)nc(NCC4CCCCN4CC(C)C)n3)cccc2s1 (configuration not stated) | 47.7 | 9.1 (≈ 15.2 µM) | 190 (≈ 317 µM) | 351 | – | – | – | ≥ 200 | 2.6 | 6.1 | 8.29 | 11 |
